Entries after “also recorded” stand apart in the source; their conditions may differ.
How the values were obtained:
[1] = TEM morphology and size of peptide nano-assemblies over time; format: physicochemical; settings: for Initial nanostructure (TEM): DMSO stock 5 mM diluted 100X with water, 50 μM (legend: 40 μM), 1% DMSO, fixed immediately (0 h); for Nanoparticle size by TEM, 0 h / Nanoparticle size by TEM, 4 h: H2O with 1% DMSO, 40 μM / 50 μM
Description: Self-assembling peptides with good biocompatibility may be used to construct nanocarriers for drug delivery. We recently reported the use of FFVLK, the reverse sequence of KLVFF, as a self-aggregating β-sheet forming domain for the delivery of HER2 targeting peptides for successful treatment of breast cancer in xenograft models. Such FFVLK containing peptide is able to self-assemble into nanoparticles. Upon intravenous administration, the FFVLK-nanoparticle was able to transform into nanofibrillar network when encountering HER2 at the tumor sites. To investigate the morphology of the nano-assembly formed by the eight self-assembling peptides, we dissolved each of these peptides in DMSO (5 mM) and then diluted them 100X with water at a final peptide concentration of 50 μM to induce spontaneous self-assembly. Each sample was fixed immediately after peptide solution preparation and at 4 h time point for subsequent TEM processing and analysis. As clearly shown in Fig. 4a, all eight self-assembling peptides initially formed some nanostructures: nanoparticles for ITSVV, YFTEF, ISDNL, LDFPI, FAGFT, FGFDP, and FTISD; nanofibers for FFVDF. […] LDFPI (8 nm) maintained the particulate morphology without changing of diameter in 4 h. FFVDF formed nanofibers at 0 and 4 h. […] Time-dependent size variations of pentapeptides in water were further confirmed by DLS spectra (Supplementary Fig. 18). The initial diameters of nanoparticles formed by seven pentapeptides were larger than that observed by TEM, probably due to hydration radius. The size of the nanostructure increased over time, correlating well with the morphologic transformation. […] Circular dichroism (CD) was used to monitor the secondary structures of the nano-assembly of the eight self-assembling peptides over time (Supplementary Fig. 20).
Pentapeptides monomers were dissolved in DMSO at a concentration of 5.0 mM, followed by quick injection into water at a volume ratio of 1:99 for DMSO and H2O to obtain the nanomaterials solution (50 μM). For 30 mM pentapeptide solution, the pentapeptide was dissolved in water and sonicated for 3 min.
The pentapeptide solution with the concentration of 20 μM (10 μL) was placed dropwise onto a copper mesh for 5 min, then most of the liquid was removed through a filter paper. Ten microliters of uranyl acetate solution were employed to stain the samples for 5 min, followed by drying the spare liquid with the filter. Finally, the copper mesh was washed with 10 μL of deionized water, which was blotted after staining and drying at room temperature. All of the samples were observed by TEM (Tecnai G2 20 S-TWIN) at an accelerating voltage of 200 kV.

[2] = test system: HeLa cells; test: Cellular uptake and distribution of FITC-labeled peptide assemblies (fluorescence/confocal microscopy); format: cell-based; settings: 40 μM (methods: 50 μM); for Cellular uptake: HeLa cells, 3% of peptide N-terminally FITC-labeled, 4 h incubation, fluorescence microscope; for Cellular distribution of peptide assemblies: live HeLa cells, 3% FITC-labeled peptide, 4 h, Lyso-Tracker Red, Hoechst
Method: Finally, we examined the biological effects and cellular distribution of the eight self-assembling peptides on HeLa cells. […] In order to observe the nanomaterials under fluorescent microscopy, each peptide preparation was spiked with 3% of the same peptide N-terminally labeled with FITC, and then added to HeLa cells at a final concentration of 40 μM. […] After 4 h of incubation with the peptide assemblies, the cells were observed under a fluorescent microscope (Figs. 4c, d and Supplementary 22). […] It is important to note that LDFPI nanoparticle was small (8 nm diameter) even after 4 h incubation. Its small size may in part explain its ability to pass through the nuclear pore complexes[32],[33]. […] To evaluate the cell uptake mechanism of peptide assemblies (YFTEF, ISDNL, and FGFDP) into the cytoplasm, we treated the cells at 4 °C or with various endocytosis inhibitors (Supplementary Fig. 23).
Hela cell line was purchased from cell culture center of Institute of Basic Medical Sciences, Chinese Academy of Medical Sciences (Beijing, China). Hela cells cultured with pentapeptide nanomaterials (50 μM) were imaged using a Zeiss LSM710 confocal laser scanning microscope (Jena, Germany). The Hela cells were seeded in complete DMEM in a humidified atmosphere with 5% CO2 and then cultured at 37 °C overnight. Then, 1 mL of serum-free fresh medium containing pentapeptide (50 μM) was used for replacing the medium, and the cells were cultured for 4 h and washed with PBS three times before being imaged using a Zeiss LSM710 confocal laser scanning microscope with a 40× objective lens. The cell lines had been authenticated utilizing short tandem repeat DNA profiling. All cells were tested negative for cross-contamination of other human cells and mycoplasma contamination.
Supplementary Figure 22. Confocal microscopy of HeLa cells after incubation with FITC-labeled pentapeptide assemblies (from left to right: FT ISD, IT SVV, Y FT E F, ISDNL , L D FP I, FAG FT, FG FDP, FFVD F ) for 4 h; peptide concentration used was 50 μM. 3% of the assembled peptides was N-terminally labeled with FITC.
Supplementary Figure 23 . Cell uptake pathway analysis for FITC-labeled pentapeptide assemblies YFTEF, ISDNL and […]. a) CLSM images of HeLa cells incubated with pentapeptides (50 μ M ) at di fferent temperatures (37 or 4 °C) and in the presence of various endocytosis inhibitors, such as amiloride (2 mM), M-β-CD (5 mM), and chlorpromazine (50 μM). The scale bar is 10 μm. b) Relevant quantitative analysis of images from ‘a’. 3% of the assembled peptides was N-terminally labeled with FITC, E rror ba rs represent Standard Deviation (n=3). […]

[3] = Critical micelle concentration (CMC); format: physicochemical; settings: soluble HPLC-purified peptide, aqueous
Method: To estimate the propensity of the identified peptides to self-assemble, the critical micelle concentrations (CMC) of the eight positive peptides and four negative peptides were determined, and the results are shown in Table 1 and Supplementary Figs. 13, 14. The CMC of all the eight positive peptides were detectable and found to range between 8.4 and 14.8 μM, indicating the propensity for these peptides to self-assemble under aqueous environment. […] Hydrophobicity of peptides can be predicted by the value of GRAVY[28] with more negative value for more hydrophilic peptides. Of the four negative assembling peptides, two have a negative GRAVY value. […] Experimental testing, such as the screening strategy described in this work, is needed. This is because multiple factors, including hydrophobicity, hydrogen-bonding, electrostatic interactions, and positions of each residue within the peptides, all contribute to the assembling and final morphology of the self-assembled nano-structure.

Initial nanostructure (TEM) [1] | Nanoparticle size by TEM, 0 h [1] [nm] | Nanoparticle size by TEM, 4 h [1] | CMC [3] [µM] | Substance | Cellular uptake [2] | Cellular distribution of peptide assemblies [2]
nanoparticles | 10 | 15 nm | 13.9 | FAGFT [self-assembling pentapeptide identified from OBOC library] | Obvious cellular uptake | mainly confine to the cytoplasm
nanofibers |  |  | 14.4 | FFVDF [self-assembling pentapeptide identified from OBOC library, forms nanofibers] |  | formed aggregates outside the cell; also recorded: formed some fluorescent aggregates outside the cells
nanoparticles |  |  | 14.8 | FGFDP [self-assembling pentapeptide identified from OBOC library] | Obvious cellular uptake | distribute only to the cytoplasm, in granular forms
nanoparticles |  |  | 10.04 | FTISD [self-assembling pentapeptide identified from OBOC library] |  | stained both the cell membrane and cytoplasm
nanoparticles |  |  | 9.4 | ISDNL [self-assembling pentapeptide identified from OBOC library] | Obvious cellular uptake | distributed inside the lysosomes throughout the cytoplasm; also recorded: distribute only to the cytoplasm, in granular forms
nanoparticles |  | ~ 300 nm | 14.8 | ITSVV [self-assembling pentapeptide identified from OBOC library] |  | localized on the cell membrane; also recorded: staining of the cell membrane and minor staining of the cytoplasm
nanoparticles | 8 | 8 nm | 8.4 | LDFPI [self-assembling pentapeptide identified from OBOC library] | Obvious cellular uptake | localized to the nucleus and perinuclear areas
nanoparticles | 41 | 75 nm | 11.4 | YFTEF [self-assembling pentapeptide identified from OBOC library] | Obvious cellular uptake | distributed throughout the cytoplasm but not the nucleus

— PMC8302598, “Rapid discovery of self-assembling peptides with one-bead one-compound peptide library” (Nature Communications, 2021)
